Patent US20240228463A1, “SODIUM CHANNEL INHIBITORS AND METHODS OF DESIGNING SAME” (Genentech, Inc., priority 2021, published 2024)
Where a name gives a salt, the structure may show the parent alone.

Target: T1, hNaV1.7 (Homo sapiens, UniProt Q15858)
T1 construct: expressed in transfected cells
Assay: Patch voltage clamp electrophysiology (EP), Syncropatch 384PE, Nav1.7 in CHO cells;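 further: Nav1.7 stably expressed from cDNA in CHO cells, holding potential of −50 mV kept for the entire experiment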
Format: cell-based
Details: holding potential −50 mV, inhibition based on 7.5 min compound incubation, read-out: hNaV1.7 EP_SP

T1 sequence (Q15858 1-1977 isoform Q15858-3): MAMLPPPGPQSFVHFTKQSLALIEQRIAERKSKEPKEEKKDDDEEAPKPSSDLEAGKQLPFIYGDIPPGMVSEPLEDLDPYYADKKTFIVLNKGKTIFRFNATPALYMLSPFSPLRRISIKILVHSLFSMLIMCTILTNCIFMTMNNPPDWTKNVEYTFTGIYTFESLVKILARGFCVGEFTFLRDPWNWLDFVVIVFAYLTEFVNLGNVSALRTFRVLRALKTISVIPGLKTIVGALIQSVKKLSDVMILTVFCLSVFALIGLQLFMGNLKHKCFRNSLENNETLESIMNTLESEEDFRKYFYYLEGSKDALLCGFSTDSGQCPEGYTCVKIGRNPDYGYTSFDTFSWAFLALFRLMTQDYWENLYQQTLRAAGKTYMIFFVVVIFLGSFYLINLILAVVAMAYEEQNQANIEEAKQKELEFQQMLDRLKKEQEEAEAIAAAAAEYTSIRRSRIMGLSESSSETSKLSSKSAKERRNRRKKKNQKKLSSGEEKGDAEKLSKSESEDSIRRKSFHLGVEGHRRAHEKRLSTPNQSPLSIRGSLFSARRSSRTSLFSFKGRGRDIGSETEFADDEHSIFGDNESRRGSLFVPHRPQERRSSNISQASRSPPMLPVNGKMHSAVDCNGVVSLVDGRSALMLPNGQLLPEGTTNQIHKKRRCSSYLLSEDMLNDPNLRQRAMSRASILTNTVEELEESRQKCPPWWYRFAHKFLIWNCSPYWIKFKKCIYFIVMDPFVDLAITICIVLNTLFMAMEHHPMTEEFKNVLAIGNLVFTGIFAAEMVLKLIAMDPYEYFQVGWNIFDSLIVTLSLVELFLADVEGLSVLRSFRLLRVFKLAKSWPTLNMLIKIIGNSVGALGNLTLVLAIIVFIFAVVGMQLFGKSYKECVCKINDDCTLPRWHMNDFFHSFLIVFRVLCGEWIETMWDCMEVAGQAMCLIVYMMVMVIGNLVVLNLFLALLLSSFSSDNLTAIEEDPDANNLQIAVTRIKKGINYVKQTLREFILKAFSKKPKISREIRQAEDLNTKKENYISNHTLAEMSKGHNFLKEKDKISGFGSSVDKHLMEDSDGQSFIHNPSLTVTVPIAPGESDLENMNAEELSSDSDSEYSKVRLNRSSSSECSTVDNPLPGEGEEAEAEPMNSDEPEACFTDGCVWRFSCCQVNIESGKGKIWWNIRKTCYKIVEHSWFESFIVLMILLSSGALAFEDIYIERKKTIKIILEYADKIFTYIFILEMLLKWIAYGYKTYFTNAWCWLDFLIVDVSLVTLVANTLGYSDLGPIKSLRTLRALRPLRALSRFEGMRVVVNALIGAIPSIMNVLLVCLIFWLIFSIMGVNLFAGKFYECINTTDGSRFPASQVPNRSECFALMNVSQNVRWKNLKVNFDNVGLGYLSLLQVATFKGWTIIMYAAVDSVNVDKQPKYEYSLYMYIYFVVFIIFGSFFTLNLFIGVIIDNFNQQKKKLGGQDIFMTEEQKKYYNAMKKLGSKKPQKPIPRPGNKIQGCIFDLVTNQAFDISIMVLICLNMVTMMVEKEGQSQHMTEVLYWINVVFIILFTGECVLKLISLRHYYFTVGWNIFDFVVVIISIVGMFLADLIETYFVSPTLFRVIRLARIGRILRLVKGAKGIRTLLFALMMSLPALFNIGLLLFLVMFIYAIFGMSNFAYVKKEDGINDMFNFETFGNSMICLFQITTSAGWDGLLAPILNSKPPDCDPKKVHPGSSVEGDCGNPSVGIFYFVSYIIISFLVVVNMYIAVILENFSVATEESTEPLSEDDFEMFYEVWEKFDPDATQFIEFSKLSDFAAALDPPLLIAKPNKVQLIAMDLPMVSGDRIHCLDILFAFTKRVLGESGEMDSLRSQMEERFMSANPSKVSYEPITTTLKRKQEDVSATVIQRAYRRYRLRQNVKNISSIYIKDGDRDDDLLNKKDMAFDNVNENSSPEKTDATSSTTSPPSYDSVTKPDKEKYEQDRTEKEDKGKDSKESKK

SMILES | IC50 [nM]
CN(C)[C@H]1CCCC[C@@H]1Nc1cc(F)c(S(=O)(=O)NC(=O)c2cc(Cl)c(OCC3CCCC3)cc2F)c(F)c1 [Example 206, 5-chloro-4-(cyclopentylmethoxy)-N-((4-(((1S,2S)-2-(dimethylamino)-cyclohexyl)amino)-2,6-difluorophenyl)sulfonyl)-2-fluorobenzamide] | 50
O=C(NS(=O)(=O)c1ccc(NC2CCCCC2)cc1F)c1cc(Cl)c(OCC2CCCC2)cc1F [Example 208, 5-chloro-N-((4-(cyclohexylamino)-2-fluorophenyl)sulfonyl)-4-(cyclopentylmethoxy)-2-fluorobenzamide] | 880
CNC1CN(S(=O)(=O)NC(=O)c2cc(Cl)c(OCC3CCCC3)cc2F)C1 [Example 226, 5-chloro-4-(cyclopentylmethoxy)-2-fluoro-N-((3-(methylamino)azetidin-1-yl)sulfonyl)benzamide formate] | 750
O=C(NS(=O)(=O)N1CCCCCC1)c1cc(Cl)c(OCC2CCCC2)cc1F [Example 227, N-(azepan-1-ylsulfonyl)-5-chloro-4-(cyclopentylmethoxy)-2-fluorobenzamide] | 20
O=C(NS(=O)(=O)N1CC2(CCO2)C1)c1cc(Cl)c(OCC2CCCC2)cc1F [Example 228, N-((1-oxa-6-azaspiro[3.3]heptan-6-yl)sulfonyl)-5-chloro-4-(cyclopentylmethoxy)-2-fluorobenzamide] | 210
O=C(NS(=O)(=O)N1CCCC12CC2)c1cc(Cl)c(OCC2CCCC2)cc1F [Example 229, N-((4-azaspiro[2.4]heptan-4-yl)sulfonyl)-5-chloro-4-(cyclopentylmethoxy)-2-fluorobenzamide] | 12
O=C(NS(=O)(=O)N1C[C@@H]2CC[C@@H](C2)C1)c1cc(Cl)c(OCC2CCCC2)cc1F [Example 230, N-(((1R,5S)-3-azabicyclo[3.2.1]octan-3-yl)sulfonyl)-5-chloro-4-(cyclopentylmethoxy)-2-fluorobenzamide] | 63
O=C(NS(=O)(=O)N1CC[C@@H]2CN[C@@H]2C1)c1cc(Cl)c(OCC2CCCC2)cc1F [Example 231, N-((1S,6R)-3,8-diazabicyclo[4.2.0]octan-3-ylsulfonyl)-5-chloro-4-(cyclopentylmethoxy)-2-fluorobenzamide 2,2,2-trifluoroacetate] | 430
NC[C@@H]1CCN(S(=O)(=O)NC(=O)c2cc(Cl)c(OCC3CCCC3)cc2F)C1 [Example 232, (S)—N-((3-(aminomethyl)pyrrolidin-1-yl)sulfonyl)-5-chloro-4-(cyclopentylmethoxy)-2-fluorobenzamide 2,2,2-trifluoroacetate] | 880
NC1CN(S(=O)(=O)NC(=O)c2cc(Cl)c(OCC3CCCC3)cc2F)C1 [Example 233, N-((3-aminoazetidin-1-yl)sulfonyl)-5-chloro-4-(cyclopentylmethoxy)-2-fluorobenzamide] | 870
CN(C)C1CN(S(=O)(=O)NC(=O)c2cc(Cl)c(OCC3CCCC3)cc2F)C1 [Example 234, 5-chloro-4-(cyclopentylmethoxy)-N-((3-(dimethylamino)azetidin-1-yl)sulfonyl)-2-fluorobenzamide] | 340
CN1CC(OC2CCN(S(=O)(=O)NC(=O)c3cc(C4CC4)c(OCc4ccccc4)cc3F)CC2)C1 [Example 236, 4-(benzyloxy)-5-cyclopropyl-2-fluoro-N-((4-((1-methylazetidin-3-yl)oxy)piperidin-1-yl)sulfonyl)benzamide] | 39
CC(C)COc1cc(F)c(C(=O)NS(=O)(=O)N2CCC(OC3CN(C)C3)CC2)cc1C1CC1 [Example 237, 5-cyclopropyl-2-fluoro-4-isobutoxy-N-((4-((1-methylazetidin-3-yl)oxy)piperidin-1-yl)sulfonyl)benzamide formic acid] | 50
CN1CC(OC2CCN(S(=O)(=O)NC(=O)c3cc(C4CC4)c(OCC(F)(F)F)cc3F)CC2)C1 [Example 238, 5-cyclopropyl-2-fluoro-N-((4-((1-methylazetidin-3-yl)oxy)piperidin-1-yl)sulfonyl)-4-(2,2,2-trifluoroethoxy)benzamide] | 84
